Measured values from patent US7470679B2, “Constrained compounds as CGRP-receptor antagonists” (Bristol-Myers Squibb Company, priority 2006, dated 2008).

Legend:
CGRP receptor [1] = biological target: T1, CGRP receptor (Homo sapiens, UniProt O60894+Q16602); experiment: CGRP Binding Assay ([125I]-CGRP radioligand displacement, SK-N-MC homogenate); set-up: endogenous in cells; host or cells: SK-N-MC cells (membrane homogenate)
Experimental: CGRP Binding Assay. Tissue Culture. SK—N-MC cells were grown at 37° C. in 5% CO2 as a monolayer in medium consisting of MEM with Earle's salts and L-glutamine (Gibco) supplemented with 10% fetal bovine serum (Gibco). Cell Pellets. The cells were rinsed twice with phosphate-buffered saline (155 mM NaCl, 3.3 mM Na2HPO4, 1.1 mM KH2PO4, pH 7.4), and incubated for 5-10 min. at 4° C. in hypotonic lysis buffer consisting of 10 mM Tris (pH 7.4) and 5 mM EDTA. The cells were transferred from plates to polypropylene tubes (16×100 mm) and homogenized using a polytron. Homogenates were centrifuged at 32,000×g for 30 min. The pellets were resuspended in cold hypotonic lysis buffer with 0.1% mammalian protease inhibitor cocktail (Sigma) and assayed for protein concentration. The SK—N-MC homogenate was then aliquoted and stored at −80° C. until needed.
Radioligand Binding Assay. The compounds of invention were solubilized and carried through serial dilutions using 100% DMSO. Aliquots from the compound serial dilutions were further diluted 25 fold into assay buffer (50 mM Tris-Cl pH 7.5, 5 mM MgCl2, 0.005% Triton X-100) and transferred (volume 50 μl) into 96 well assay plates. [^125I]-CGRP (Amersham Biosciences) was diluted to 60 pM in assay buffer and a volume of 50 μl was added to each well. SK—N-MC pellets were thawed, diluted in assay buffer with fresh 0.1% mammalian protease inhibitor cocktail (Sigma), and homogenized again. SK—N-MC homogenate (5 μg/well) was added in a volume of 100 μl. The assay plates were then incubated at room temperature for 2 h. Assays were stopped by addition of excess cold wash buffer (20 mM Tris-Cl pH 7.5, 0.1% BSA) immediately followed by filtration over glass fiber filters (Whatman GF/B) previously soaked in 0.5% PEI. Non-specific binding was defined with 1 μM beta-CGRP. Protein bound radioactivity was determined using a gamma or scintillation counter. The IC50 was defined as the concentration of a compound of invention required to displace 50% of radioligand binding.

CGRP receptor [2] = biological target: T1, CGRP receptor; experiment: Cyclic AMP Functional Antagonism Assay; assay type: cell-based; set-up: cells that endogenously express the human CGRP receptor; endogenous in cells; host or cells: SK-N-MC cells; conditions: Table 2; SK-N-MC cells, 0.3 nM CGRP, 30 min; read-out: cAMP Function IC50
Experimental: Cyclic AMP Functional Antagonism Assay. Antagonism of the compounds of invention was determined by measuring the formation of cyclic AMP (adenosine 3′5′-cyclic monophosphate) in SK—N-MC cells that endogenously express the human CGRP receptor. CGRP receptor complex is coupled with Gs protein and CGRP binding to this complex leads to the cyclic AMP production via Gs-dependent activation of an adenylate cyclase (Juaneda C et al., TiPS, 2000; 21:432-438; incorporated by reference herein). Consequently, CGRP receptor antagonists inhibit CGRP-induced cyclic AMP formation in SK—N-MC cells (Doods H et al., Br J Pharmacol, 2000; 129(3):420-423); incorporated by reference herein). For cyclic AMP measurements SK—N-MC cells were incubated with 0.3 nM CGRP alone or in the presence of various concentrations of the compounds of invention for 30 min at room temperature. Compounds of invention were pre-incubated with SK—N-MC cells for 15 min before the addition of CGRP to allow receptor occupancy (Edvinsson et al., Eur J Pharmacol, 2001, 415:39-44; incorporated by reference herein). Cyclic AMP was extracted using the lysis reagent and its concentration was determined by radioimmunoassay using RPA559 cAMP SPA Direct Screening Assay Kit (Amersham Pharmacia Biotech). IC50 values were calculated using Excel fit.

[3] = Table 2, displacement of [125I]-CGRP
[4] = Table 1, displacement of [125I]-CGRP

T1 sequence (Q16602 23-461): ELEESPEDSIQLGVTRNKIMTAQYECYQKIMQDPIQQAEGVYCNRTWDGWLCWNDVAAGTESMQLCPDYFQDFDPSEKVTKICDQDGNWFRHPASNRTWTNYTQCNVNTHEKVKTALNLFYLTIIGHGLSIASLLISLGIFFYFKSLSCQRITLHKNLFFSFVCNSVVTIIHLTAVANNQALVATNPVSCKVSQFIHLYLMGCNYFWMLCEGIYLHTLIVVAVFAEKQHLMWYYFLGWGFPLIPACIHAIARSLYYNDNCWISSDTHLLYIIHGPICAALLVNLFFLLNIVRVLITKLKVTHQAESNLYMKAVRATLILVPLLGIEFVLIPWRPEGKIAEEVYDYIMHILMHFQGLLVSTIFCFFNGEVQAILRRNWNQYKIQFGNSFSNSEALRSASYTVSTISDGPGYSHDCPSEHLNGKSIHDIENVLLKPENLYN
T1 sequence (O60894 27-148): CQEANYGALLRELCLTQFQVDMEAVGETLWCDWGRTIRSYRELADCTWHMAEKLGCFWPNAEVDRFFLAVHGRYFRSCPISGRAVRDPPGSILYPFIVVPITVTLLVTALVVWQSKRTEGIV

SMILES	IC50 (CGRP receptor [1]; [3]) [nM]	IC50 (CGRP receptor [2]) [nM]	IC50 (CGRP receptor [1]; [4]) [nM]
COCCN1Cc2c(cc(Br)c3[nH]ncc23)C[C@@H](CC(=O)N2CCC(c3cc4cccc(F)c4[nH]c3=O)CC2)C1=O	10 to 100	–	–
CC(C)(C)CN1Cc2c(cc(Cl)c3[nH]ncc23)C[C@@H](CC(=O)Nc2ccc3c(c2)CCC2(C3)NC(=O)NC2=O)C1=O (some centres unmarked)	0.1 to 10	–	–
O=C(C[C@@H]1Cc2cc(Br)c3[nH]ncc3c2CN(CC2CC2)C1=O)N1CCC(c2cc3ccccc3[nH]c2=O)CC1	0.1 to 10	–	–
O=C(C[C@@H]1Cc2cc(Br)c3[nH]nc(Br)c3c2CN(CC(F)(F)F)C1=O)N1CCC(c2cc3ccccc3[nH]c2=O)CC1	–	–	0.1 to 10
O=C1OCc2c(cc(Br)c3[nH]ncc23)C[C@H]1CC(=O)N1CCC(c2cc3ccccc3[nH]c2=O)CC1	–	–	0.1 to 10
O=C1NCCC2(CCN(C(=O)N[C@@H]3Cc4ccc5[nH]ncc5c4CN(Cc4ccc(C(F)(F)F)cc4)C3=O)CC2)N1	100 to 1000	–	–
O=C1Nc2ccccc2C2(CCN(C(=O)NC3Cc4ccc5[nH]ncc5c4CN(CCc4ccncc4)C3=O)CC2)N1 (centres unmarked)	100 to 1000	–	–
CC(C)(C)CN1Cc2c(ccc3[nH]ncc23)C[C@@H](NC(=O)N2CCC3(CC2)CNC(=O)c2ccccc23)C1=O	> 1000	–	–
O=C(N[C@@H]1Cc2ccc3[nH]ncc3c2CN(CCN2CCOCC2)C1=O)N1CCC(N2Cc3ccccc3NC2=O)CC1	10 to 100	–	–
O=C1Nc2ccccc2CC1N1CCN(C(=O)C[C@@H]2Cc3ccc4[nH]ncc4c3CN(Cc3ccccc3)C2=O)CC1 (some centres unmarked)	100 to 1000	–	–
CC(C)(C)CN1Cc2c(cc(Cl)c3[nH]ncc23)C[C@@H](CC(=O)Nc2ccc3c(c2)CC2(C3)NC(=O)NC2=O)C1=O (some centres unmarked)	10 to 100	–	–
CC(C)(C)CN1Cc2c(ccc3[nH]ncc23)C[C@@H](CC(=O)N2CCC(N3Cc4ccccc4CC3=O)CC2)C1=O	100 to 1000	–	–

Continued, values first:

IC50 (CGRP receptor [1]; [3]) [nM]	IC50 (CGRP receptor [2]) [nM]	IC50 (CGRP receptor [1]; [4]) [nM]	SMILES
10 to 100	0.1 to 10	–	CC(C)(C)CN1Cc2c(ccc3[nH]ncc23)C[C@@H](CC(=O)N2CCC(N3Cc4ccccc4NC3=O)CC2)C1=O
100 to 1000	–	–	O=C1Nc2ccccc2CC1C1CCN(C(=O)C[C@@H]2Cc3ccc4[nH]ncc4c3CN(Cc3ccccc3)C2=O)CC1 (some centres unmarked)
10 to 100	–	–	CC(C)(C)CN1Cc2c(cc(Cl)c3[nH]ncc23)C[C@@H](CC(=O)N2CCC(N3C(=O)CN(c4ccccc4)C3=O)CC2)C1=O
–	–	0.1 to 10	O=C(C[C@@H]1Cc2cc(Br)c3[nH]nc(Br)c3c2CN(CC(F)(F)F)C1=O)N1CCC(c2cc3cccc(F)c3[nH]c2=O)CC1
0.1 to 10	0.1 to 10	–	O=C(NC1Cc2ccc3[nH]ncc3c2CN(CCc2ccncc2)C1=O)N1CCC(N2Cc3ccccc3NC2=O)CC1 (centres unmarked)
10 to 100	–	–	O=C(C[C@@H]1Cc2cc(Cl)c3[nH]ncc3c2CN(Cc2cccnc2)C1=O)N1CCC(c2cc(-c3ccccc3)[nH]n2)CC1
10 to 100	10 to 100	–	CC(C)(C)CN1Cc2c(ccc3[nH]ncc23)C[C@@H](CC(=O)N2CCC(n3cc(-c4ccccc4)[nH]c3=O)CC2)C1=O
10 to 100	–	–	CC(C)(C)CN1Cc2c(cc(Cl)c3[nH]ncc23)C[C@@H](CC(=O)N2CCC(c3cc4ccccc4c[n+]3[O-])CC2)C1=O
